For the assay, the target named is T1, human β2 adrenergic receptor (Homo sapiens, UniProt P07550).
T1 construct: expressed in transfected cells; host or cells: CHO (Chinese Hamster Ovary) cells, CHOhβ2
As to the kind of experiment: cAMP Flashplate assay in CHO cells recombinantly expressing the human β2 adrenergic receptor (agonist potency). It counts as cell-based. The conditions noted are these: CHOhβ2 cells, 1 hour incubation, 125I-cAMP Flashplate; data expressed as % Isoprenaline activity, four parameter sigmoid fit. The protocol:
According to another alternative, the agonist potency for the β2 receptor of the L-tartrate salt of the invention may also be determined by the measure of the concentration of compound according to the present invention required to produce half maximal effect (EC50) for the β2 receptor.
10 mM/100% DMSO (dimethylsulfoxide) stock of compound is diluted to required top dose in 4% DMSO. This top dose is used to construct a 10-point semi-log dilution curve, all in 4% DMSO. Isoprenaline (Sigma, I-5627) was used as a standard in every experiment and for control wells on each plate. Data was expressed as % Isoprenaline response. […]
25 μl/well each dose of compound was transferred into a cAMP-Flashplate® (NEN, SMP004B), with 1% DMSO as basal controls and 100 nM Isoprenaline as max controls. […] The amount of ^125I-cAMP bound to the Flashplate® was quantified using a Topcount NXT (Packard), normal counting efficiency for 1 minute. Dose-response data was expressed as % Isoprenaline activity and fitted using a four parameter sigmoid fit.

T1 sequence (P07550 whole entry): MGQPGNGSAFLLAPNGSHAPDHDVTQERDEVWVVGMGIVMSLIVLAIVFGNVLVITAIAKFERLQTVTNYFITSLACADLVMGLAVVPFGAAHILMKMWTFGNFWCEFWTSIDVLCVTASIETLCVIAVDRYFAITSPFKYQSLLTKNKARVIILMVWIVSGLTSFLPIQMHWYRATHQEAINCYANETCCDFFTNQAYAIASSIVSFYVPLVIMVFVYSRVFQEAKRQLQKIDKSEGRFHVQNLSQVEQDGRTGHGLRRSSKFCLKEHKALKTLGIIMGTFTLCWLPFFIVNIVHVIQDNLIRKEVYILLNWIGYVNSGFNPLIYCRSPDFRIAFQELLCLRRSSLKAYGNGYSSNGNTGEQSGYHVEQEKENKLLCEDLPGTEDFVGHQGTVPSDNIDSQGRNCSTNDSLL

Consider `C[C@H](Cc1cccc(CC(=O)NC23CC4CC(CC(C4)C2)C3)c1)NC[C@H](O)c1ccc(O)c(CO)c1` [example 1, N-1-Adamantyl-2-{3-[(2R)-2-({(2R)-2-hydroxy-2-[4-hydroxy-3-(hydroxymethyl)phenyl]ethyl}amino)propyl]phenyl}acetamide L-tartrate], for which the EC50 (as a rule, the midpoint of the concentration-response curve) stood at 0.076 nM.

Source of the values: patent US20060106107A1, “L-tartrate salt of N-1-Adamantyl-2-{3-[(2R)-2-({(2R)-2-hydroxy-2-[4-hydroxy-3-(hydroxymethyl)phenyl]ethyl}amino)propyl] phenyl}acetamide” (priority 2004, published 2006).
